In ChEMBL document CHEMBL1240418, “Carbonic anhydrase inhibitors. Regioselective synthesis of novel 1-substituted 1,4-dihydro-4-oxo-3-pyridinesulfonamides and their inhibition of the human cytosolic isozymes I and II and transmembrane cancer-associated isozymes IX and XII” (Eur J Med Chem, 2010):
pKi: −log10 of the molar value.

Molecular target: Carbonic anhydrase 9 (Homo sapiens, UniProt Q16790)

Row | Compound | pKi
1 | COC(=O)Nc1ccccc1C(=O)n1ccc(=O)c(S(N)(=O)=O)c1 | 7.02
2 | NS(=O)(=O)c1cn(CC(=O)c2cccc([N+](=O)[O-])c2)ccc1=O | 7.92
3 | NS(=O)(=O)c1cn(CC(=O)c2ccc(Cl)c(Cl)c2)ccc1=O | 8.07
4 | NS(=O)(=O)c1cn(CC(=O)c2ccc(Cl)cc2)ccc1=O | 7.93
5 | NS(=O)(=O)c1cn(-c2ccc([N+](=O)[O-])cc2[N+](=O)[O-])ccc1=O | 8.24
6 | NC(=O)Cn1ccc(=O)c(S(N)(=O)=O)c1 | 7.19
7 | NS(=O)(=O)c1cn(-c2ccc([N+](=O)[O-])c3[n-][o+]nc23)ccc1=O | 8.16
8 | NS(=O)(=O)c1cn(CC(=O)c2ccc(F)cc2)ccc1=O | 8.01
9 | NS(=O)(=O)c1cn(CC(=O)c2ccc3ccccc3c2)ccc1=O | 6.93
10 | NS(=O)(=O)c1cn(Cc2ccccc2)ccc1=O | 8.11
11 | Cn1ccc(=O)c(S(N)(=O)=O)c1 | 8.15
